Experiment [1] deals with human intestinal fibroblasts. In words: SA-β-gal staining of irradiated (3×2 Gy) fibroblasts pre-conditioned with IL-1RA low organoid medium. Format: cell-based. To be noted: IL-1RA low conditioned medium, anakinra 20 μg/mL, 72 h. An excerpt:
(§1) (A and B) Quantification of IL-1 and IL-1RA baseline serum levels in non-pCR (n=25) and pCR (n=7) patients before CRT. Data are mean±SD. ** p<0.01 by t-test. (C) IL-1RA serum level association with two SNPs: rs4251961 (T/C) and rs579543 (A/G) using DNA isolated from patients (n=31) pre-CRT peripheral blood mononuclear cells. Data are mean±SD. ** p=0.0052 by t-test. (D) Kaplan-Meier DFS curve of patients with high (n=37) and low (n=37) IL-1RN expression score (median split) based on the RNA sequencing data of pre-CRT biopsies. * p<0.05 by Log-rank (Mantel-Cox) test. […] (H) Paired analysis of sirius red staining of non-pCR patients (n=11) pre versus post-CRT. Scale bars=300 μm. (I) Paired quantification of p21 immunohistochemistry staining of non-pCR patients (n=10) pre versus post CRT. (J) Correlation analysis of pre-CRT serum IL-1RA levels with ratio of p21 induction (post/pre-CRT p21 RNA expression level) (n=10 non pCR patients). * p<0.05 by Spearman r correlation test. […] (M) Nitrite concentration determined by Griess assay in supernatants from WT, IL-1RA high & IL-1RA low conditioned media treated human fibroblasts for 72 h (n=13 independent wells per group). […] (N) Nitrite concentration determined by Griess assay in supernatants from untreated and IL-1α (1 μg/mL) stimulated human fibroblasts for 72 h (n=32 independent wells per group representing 3 independent experiments). […]

For experiment [2], the system named is colon fibroblasts. In words: Nitrite concentration by Griess assay in fibroblast supernatants. The format is cell-based, mouse. The note with it: recombinant IL-1α 1 μg/mL, 72 hours. On the procedure:
(§2) (A) Schematic illustration of APTKA organoids supernatant collection and treatment of colon fibroblasts from unchallenged wildtype C57BL/6 mice for 12 h followed by 3×2 Gy irradiation. Microscopic, proteomic & transcriptomic analysis were performed 72 h post first irradiation. (B) Microscopic captures of non-irradiated wildtype (WT) and APTKA conditioned fibroblasts. Remaining captures belong to irradiated fibroblasts: WT, IL-1α (1 μg/mL) stimulated WT, and APTKA conditioned media minus or plus anakinra (20 μg/mL) treated fibroblasts. Scale bars=200 μm. (C) Mass spectrometric analysis of matrisome profiles of 3×2 Gy irradiated (n=8) and non-irradiated (n=8) APTKA conditioned fibroblasts. […] (G) Immunoblot analysis of untreated and irradiated APTKA conditioned fibroblasts. Representative results from one experiment which has been independently repeated 2 times. (H) SA-ß gal staining of untreated and irradiated APTKA fibroblasts. Scale bars=100 μm. (I and J) p21 and pH2AX immunofluorescent staining of untreated and irradiated APTKA fibroblasts. Scale bars=[…]. Data are mean±SD. ** […] and *** p<0.001 by t-test. (K) Nitrite concentration determined by Griess assay in conditioned media from WT, APTK media, APTKA media, IL-1α (1 μg/mL) stimulated and APTKA plus anakinra (20 μg/mL) treated fibroblasts for 72 h (n=10 independent wells per group). […]
(Nitrite, measured by Griess reagent, commonly stands in for NO production.)

In experiment [3] the test system is colon fibroblasts. In words: Oxidative DNA damage by 8-OHdG immunofluorescence in fibroblasts. Format: cell-based, mouse. To be noted: recombinant IL-1α 1 μg/mL, 72 hours. As to the method:
as §2

Experiment [4] deals with human fibroblasts. In words: Nitrite concentration by Griess assay in human fibroblast supernatants. To be noted: IL-1α 1 μg/mL only, 72 h. Format: cell-based.
Excerpt: as §1

For the substance “anakinra: Kineret®, an interleukin-1 receptor antagonist”, the “senescence induction upon irradiation (SA-β-gal staining)” value in experiment [1] was “could be blocked by anakinra”.

In the case of “recombinant IL-1α: recombinant cytokine used to stimulate fibroblasts”, the “nitrite levels in fibroblast supernatants” value in experiment [2] was “significantly elevated”. Also, the “oxidative DNA damage (8-OHdG immunofluorescence)” value in experiment [3] is “increase in oxidative DNA damage”. Besides, in experiment [4], the “nitrite production by fibroblasts” value is “higher nitrite production by fibroblasts”.

The record behind these values is patent publication US20230365673A1, “MEANS FOR REDUCING RADIO- AND CHEMOTHERAPY RESISTANCE AND ADVERSE EFFECTS” (JOHANN WOLFGANG GOETHE-UNIVERSITÄT FRANKFURT AM MAIN, priority 2020, published 2023).
